Key:
[1] = test system: HK81 (AlkB+) E. coli cells; test: REAP mutagenesis assay, HK81 cells; format: cell-based; conditions: for Mutagenicity, Average % A / Mutagenicity, Average % G / Mutagenicity, Average % T: (c) HK81
Description: (§1) All E. coli strains used in this work contain the F′ episome, which enables infection by M13 phage. GW5100 strain was used for large scale preparation of M13 phage DNA, SCS 110 (JM110, end Al) was used for amplification of progeny phage post-electroporation, and NR9050 was the strain of choice for double agar plating with X-GAL for blue-clear detection of plaques. The E. coli strains used to replicate lesion-containing phage were HK81 (as AB1157, but nalA) and HK82 (as AB1157, but nalA alkB22; AlkB-deficient).
(§2) Lesion-containing genomes were mixed with the competitor genome (80:20 molar ratio) and electroporated in triplicate into 100 μl competent cells using a 2 mm-gap cuvette and a BTX electroporator set to 2.5 kV and 125 a Typical pulse lengths were 4.9 msec. The cells were immediately transferred to 10 ml LB and an aliquot was immediately plated using the agar overlay method to verify that a minimum of 10^5 independent initial electroporation events occurred in 10 ml of culture. Incubation for 6 h at 37° C. with aeration generated the progeny phage, which were then reamplified in SCS 110 cells (10 μl overnight culture and 100 μl of the 6 h supernatant in 10 ml LB) to dilute out the residual genomic DNA used for electroporation. Single-stranded M13 progeny phage DNA was isolated from 1.4 ml of supernatant using a Q1Aprep Spin M13 Kit with final DNA suspension in 100 μl elution buffer. CRAB forward and reverse primers were used to amplify the region of interest from 15 μl per Q1Aprep elution sample in a total volume of 25 μl containing 50 pmol of each primer, 1×Pfu Turbo buffer, 1.25 U Pfu Turbo DNA polymerase and […] of each dNTP. The PCR program used 30 cycles of 67° C. (1 min) annealing and 72° C. (1 min) extensions. After purification using QIAQUICK PCR purification columns, 4 μl of the PCR product were treated with BbsI (1.5 U) and SAP (0.3 U) in a total volume of 6 μl by incubating at 37° C. for 4 h. After phosphatase inactivation, (80° C. for 5 min), the 5′ ends were then radiolabeled using [γ-^32P]-ATP (1.66 pmol, 10 μCi/μl, 6000 Ci/mmol), cold ATP (16 pmol) and 5 U of OPTIKINASE at 37° C. for 30 min. Following the kinase inactivation at 65° C. for 20 min, the labeled product was then trimmed by HaeIII (10 U in a final volume of 10 μl) at 37° C. for 2 h, and diluted 1:1 in formamide loading dye. PAGE separation on a 20% denaturing gel, run for about 3.5 h at 550 V, until the xylene cyanol dye migrated 10.5 cm, yielded two bands for each sample: an 18-mer originating from the lesion-containing genome and a 21-mer originating from the competitor genome. The gels were visualized on a phosphorimager (Typhoon 7000, GE Healthcare Life Sciences); the band intensities were quantified using IMAGEJ software (National Institutes of Health). Lesion bypass was calculated as the percentage ratio of the intensity of the 18-mer band (lesion signal) to the intensity of the 21-mer band (competitor signal).
The REAP assay methodology is identical to the CRAB assay except for the PCR primers, which amplified only the progeny DNA originating from the lesion-carrying genomes. Following electrophoresis, the 18-mer bands were excised from the gel, crushed and extracted with 200 μl water. After desalting with SEPHADEX G-50 Fine resin spin columns, the samples were lyophilized to dryness, resuspended in 5 μl containing 1 μg P1 Nuclease in 30 mM sodium acetate (pH 5.3) and 10 mM zinc chloride, and incubated at 50° C. for 1 h. One μl of each sample was then spotted onto PEI-TLC plates and separated using 200 ml of a saturated solution of (NH4)2HPO4 adjusted to pH 5.8. After 24 h of development, the TLC plates were air-dried and quantified using phosphorimagery. […]

[2] = test system: HK82 (AlkB−) E. coli cells; format: cell-based; conditions: for Mutagenicity, Average % A / Mutagenicity, Average % C / Mutagenicity, Average % G / Mutagenicity, Average % T: (a) HK82; for base pairing / mutagenicity (in words): FIGS. 18C, 18E, m3C in repair deficient cells
HK82SOS = test: CRAB lesion bypass assay, HK82SOS cells; format: cell-based, E. coli; conditions: percentage relative to unmodified control genome
Description: as §1
as §2, with “After purification using QIAQUICK PCR purification columns, 4 μl of the PCR product were treated with BbsI (1.5 U) and SAP (0.3 U) in a total volume of 6 μl by incubating at 37° C. for 4 h. After phosphatase inactivation, (80° C. for 5 min), the 5′ ends were then radiolabeled using [γ-^32P]-ATP (1.66 pmol, 10 μCi/μl, 6000 Ci/mmol), cold ATP (16 pmol) and 5 U of OPTIKINASE at 37° C. for 30 min. Following the kinase inactivation at 65° C. for 20 min, the labeled product was then trimmed by HaeIII (10 U in a final volume of 10 μl) at 37° C. for 2 h, and diluted 1:1 in formamide loading dye. PAGE separation on a 20% denaturing gel, run for about 3.5 h at 550 V, until the xylene cyanol dye migrated 10.5 cm, yielded two bands for each sample: an 18-mer originating from the lesion-containing genome and a 21-mer originating from the competitor genome.” left out, “signal). […]” for “signal).”

[3] = test system: HK82 (AlkB−) E. coli cells; format: cell-based; conditions: for Polymerase bypass efficiency, Avg.: HK82, percentage relative to unmodified control genome, triplicate
[4] = in vitro and in vivo replication of a single-stranded vector containing a single KP1212

Row | Structure (SMILES) | Mutagenicity, Average % C [1] | Mutagenicity, Average % A [1] | Mutagenicity, Average % G [1] | Mutagenicity, Average % T [1] | Mutagenicity, Average % A [2] | Mutagenicity, Average % C [2] | Mutagenicity, Average % G [2] | Mutagenicity, Average % T [2] | base pairing / mutagenicity (in words) [2] | in vivo mutation frequency ([2]; frequency of pairing with any non-G base (A)) | paired with A [2, 4] | paired with G [2, 4] | pairing with A in vivo ([2]; in vivo, E. coli (FIG. 18E)) | pairing with G in vivo ([2]; in vivo, E. coli (FIG. 18E)) | mutation frequency ([2]; observed in vitro and in vivo in this study) | Polymerase bypass efficiency, Avg. (HK82SOS) | replication block / toxicity to replication ([3]; E. coli (FIG. 18D), for m3C cells that lack AlkB) | Polymerase bypass efficiency, Avg. [3]
1 | NC1=NC(=O)N([C@H]2C[C@H](O)[C@@H](CO)O2)CN1 [KP1212, 5-aza-5,6-dihydro-2′-deoxycytidine] | 90.2% | 0.2% | 0.1% | 9.5% | 0.0% | 89.1% | 0.4% | 10.5% | mutagenic both in vitro and in vivo | approximately 10% | 10% | 90% | 10% | 90% | 10% | 124% | not to be a replication block | 91%
2 | Nc1ccn([C@H]2C[C@H](O)[C@@H](CO)O2)c(=O)n1 [dC, deoxycytidine] | 99.9% | 0.1% | 0.0% | 0.0% | 0.0% | 100.0% | 0.0% | 0.0% | only pairs with G |  |  |  |  |  |  | 100% |  | 100%

From patent US9283242B2, “Uses of dihydro bases” (priority 2013, dated 2016)
